Data set [1] has as its system chymotrypsin-type proteases. The following applies: previously synthesized molecules; cited from earlier work.
A short description of data set [2]: Spontaneous conversion of pro-pyrazinones under aerobic conditions. The class given is physicochemical.
In a further data set the test system is calpain protease. The following applies: cited from earlier work.
The next data set relates to trypsin-like proteases. The following applies: cited from earlier work.
The test system of the next data set is Plu4509. The data set can be described thus: In vitro enzyme assay of purified Plu4509 with leupeptin as substrate. The class given is biochemical, P. luminescens. The settings on record: His6x-tagged Plu4509; end point analysis; 1 h, 35° C.
The conditions of data set [3]: cited from earlier work.

Where a SMILES comes first, the peptide text is derived from it.

For `CC(=O)N[C@@H](CC(C)C)C(=O)N[C@@H](CC(C)C)C(=O)N[C@H](C=O)Cc1ccc(O)cc1` [leupeptin B] (Ac-Leu-Leu-Tyr-aldehyde), the “inhibition of chymotrypsin-type proteases” value in data set [1] was “confirmed to inhibit chymotrypsin-type proteases”.

Take `CC(C)C[C@@H]1N[C@@H]2N=C(N)N3CCC[C@]23NC1=O` [compound 10]: in data set [2], the “stability under aerobic conditions (conversion to pyrazinone)” value was “spontaneously converted to their pyrazinone counterpart 11”.

As to `CC(C)C[C@@H]1N[C@@H]2N=C(N)N3CCC[C@@]23NC1=O` [compound 9], the “stability under aerobic conditions (conversion to pyrazinone)” value in data set [2] is “spontaneously converted to their pyrazinone counterpart 11”.

For the molecule `CC(=O)NC(CC(C)C)C(=O)NC(CC(C)C)C(=O)NC(C=O)Cc1ccccc1` (stereo not drawn) [leupeptin C] (Ac-Leu-Leu-Phe-aldehyde; configuration not given here), the “inhibition of chymotrypsin-type proteases” value in data set [1] is recorded as “confirmed to inhibit chymotrypsin-type proteases”.

Consider `CC(C)Cc1ncc(Cc2ccc(O)cc2)[nH]c1=O` [lumizinone A], for which the calpain protease inhibition entry in the data set on calpain protease was “calpain protease inhibitor”.

Turning to `CC(=O)N[C@@H](CC(C)C)C(=O)N[C@@H](CC(C)C)C(=O)N[C@H](C=O)CCCNC(=N)N` [leupeptin A, N-Acetyl-L-leucyl-L-leucyl-L-argininal], in the data set with trypsin-like proteases, the “inhibition of trypsin-like proteases” value is recorded as “inhibits trypsin-like proteases”. For the same molecule, the “cleavage by Plu4509: production of metabolites 10 and 11 from the substrate” value in the data set with Plu4509 is “significantly enhanced production of 10 and 11”. The toxicity in humans result in data set [3] is reported as “very low toxicity”.

The values are drawn from US11912742B2, “Heterologous production of leupeptin protease inhibitors and analogs thereof” (YALE UNIVERSITY, priority 2020, dated 2024).
